# Measured values as given in EP4509511A1, “SUBSTITUTED SPIRO-ISOXAZOLINYL LACTAMS, SALTS THEREOF AND THEIR USE AS HERBICIDALLY ACTIVE SUBSTANCES” (Bayer Aktiengesellschaft, priority 2023, dated 2025).
# Legend:
# ECHCG [1] = test: Herbicidal pre-emergence action - Part I; assay type: in vivo, Echinochloa crus-galli; conditions: visual grading after ca. 3 weeks vs untreated controls
# In short: (§1)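 In this greenhouse pre-emergence test, formulated compounds with 0.5% additive were applied at 1280 g/ha or below onto the soil covering sown weed seeds in sandy loam. After roughly three weeks, plant damage was scored by eye in percent versus untreated controls.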
# LOLRI [2] = test: Herbicidal pre-emergence action - Part I; assay type: in vivo, Lolium rigidum; conditions: visual grading after ca. 3 weeks vs untreated controls
# Description: (§2) Seeds of mono- and dicotyledonous weed plants were sown in plastic pots (double sowings with one species of mono- and one species of dicotyledonous weed plants per pot), in sandy loam, and covered with soil. The compounds according to the invention, formulated in the form of wettable powders (WP) or as emulsifiable concentrates (EC), were applied to the surface of the covering soil as aqueous suspension or emulsion, with the addition of 0.5% of an additive, at an application rate of 600 1 of water per hectare (converted). Following treatment, the pots were placed in a greenhouse and kept under optimum growth conditions for the test plants. The visual grading of the damage to the test plants was carried out after ca. 3 weeks in comparison to untreated controls (herbicidaleffectinpercent(%):100%effect=plantshavediedoff,0%effect=ascontrolplants). [formula]
# (§3) Tables A1 to A12, below, show the effects of selected compounds of the general formula (I) according to table 1 on various harmful plants and an application rate corresponding to 1280 g/ha or below obtained by the experimental procedure mentioned above. Table A1: pre-emergence activity at 1280g/ha against ABUTH in %
# MATIN [3] = test: Herbicidal pre-emergence action - Part I; assay type: in vivo, Matricaria inodora; conditions: visual grading after ca. 3 weeks vs untreated controls
# Description: as §2, §3
# SETVI [4] = test: Herbicidal pre-emergence action - Part I; assay type: in vivo, Setaria viridis; conditions: visual grading after ca. 3 weeks vs untreated controls
# Description: as §2, §3
# STEME [5] = test: Herbicidal pre-emergence action - Part I; assay type: in vivo, Stellaria media; conditions: visual grading after ca. 3 weeks vs untreated controls
# In short: as §1
# POAAN [6] = test: Herbicidal pre-emergence action - Part I; assay type: in vivo, Poa annua; conditions: visual grading after ca. 3 weeks vs untreated controls
# Description: as §2, §3
# AMARE [7] = test: Herbicidal pre-emergence action - Part I; assay type: in vivo, Amaranthus retroflexus; conditions: visual grading after ca. 3 weeks vs untreated controls
# In short: as §1
# KCHSC [8] = test: Herbicidal pre-emergence action - Part I; assay type: in vivo, Kochia scoparia
# Description: as §2, §3
# DIGSA [9] = test: Herbicidal pre-emergence action - Part I; assay type: in vivo, Digitaria sanguinalis; conditions: visual grading after ca. 3 weeks vs untreated controls
# Description: as §2, §3
# ABUTH = test: Herbicidal post-emergence action - Part I; assay type: in vivo, Abutilon theophrasti; conditions: one-leaf stage, rated visually after about 3 weeks vs untreated controls
# Experimental: (§4) Seeds of mono- and dicotyledonous weed plants were placed in plastic pots in sandy loam soil (doubly sown with in each case one species of mono- or dicotyledonous weed plants per pot), covered with soil and cultivated in a greenhouse under controlled growth conditions. 2 to 3 weeks after sowing, the test plants were treated at the one-leaf stage. The compounds of the invention, formulated in the form of wettable powders (WP) or as emulsion concentrates (EC), were applied onto the green parts of the plants as aqueous suspension or emulsion with addition of 0.5% additive at a water application rate of 600 liters per hectare (converted). After the test plants had been kept in the greenhouse under optimum growth conditions for about 3 weeks, the activity of the preparations was rated visually in comparison to untreated controls. For example, 100% activity = the plants have died, 0% activity = like control plants. Tables B1 to B12, below, show the effects of selected compounds of the general formula (I) according to table 1 on various harmful plants and an application rate corresponding to 1280 g/ha or below obtained by the experimental procedure mentioned above. Table B1a: post-emergence activity at 1280g/ha against ABUTH in %
# ECHCG [10] = test: Herbicidal post-emergence action - Part I; assay type: in vivo, Echinochloa crus-galli; conditions: 1280 g/ha, one-leaf stage, rated visually after about 3 weeks vs untreated controls
# Experimental: as §4
# MATIN [11] = test: Herbicidal post-emergence action - Part I; assay type: in vivo, Matricaria inodora; conditions: 1280 g/ha, one-leaf stage, rated visually after about 3 weeks vs untreated controls
# Experimental: as §4
# SETVI [12] = test: Herbicidal post-emergence action - Part I; assay type: in vivo, Setaria viridis; conditions: one-leaf stage, rated visually after about 3 weeks vs untreated controls
# Experimental: as §4
# STEME [13] = test: Herbicidal post-emergence action - Part I; assay type: in vivo, Stellaria media; conditions: one-leaf stage, rated visually after about 3 weeks vs untreated controls
# In short: (§5)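 Greenhouse weeds grown in sandy loam were sprayed post-emergence at the one-leaf stage, 2-3 weeks after sowing. Compounds were applied as WP or EC in water with 0.5% additive at 600 L/ha, at 1280 g/ha or below. Visual damage was rated after about 3 weeks versus untreated plants (0-100%).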
# POAAN [14] = test: Herbicidal post-emergence action - Part I; assay type: in vivo, Poa annua; conditions: one-leaf stage, rated visually after about 3 weeks vs untreated controls
# Experimental: as §4
# AMARE [15] = test: Herbicidal post-emergence action - Part I; assay type: in vivo, Amaranthus retroflexus; conditions: one-leaf stage, rated visually after about 3 weeks vs untreated controls
# In short: as §5
# ALOMY [16] = test: Herbicidal post-emergence action - Part I; assay type: in vivo, Alopecurus myosuroides; conditions: one-leaf stage, rated visually after about 3 weeks vs untreated controls
# Experimental: as §4
# KCHSC [17] = test: Herbicidal post-emergence action - Part I; assay type: in vivo, Kochia scoparia; conditions: one-leaf stage, rated visually after about 3 weeks vs untreated controls
# In short: as §5
# VERPE = test: Herbicidal post-emergence action - Part I; assay type: in vivo, Veronica persica; conditions: one-leaf stage, rated visually after about 3 weeks vs untreated controls
# In short: as §5
# ALOMY [18] = test: Herbicidal pre-emergence action - Part I; assay type: in vivo, Alopecurus myosuroides; conditions: visual grading after ca. 3 weeks vs untreated controls
# Description: as §2, §3
# LOLRI [19] = test: Herbicidal post-emergence action - Part I; assay type: in vivo, Lolium rigidum; conditions: one-leaf stage, rated visually after about 3 weeks vs untreated controls
# Experimental: as §4
# DIGSA [20] = test: Herbicidal post-emergence action - Part I; assay type: in vivo, Digitaria sanguinalis; conditions: 1280 g/ha, one-leaf stage, rated visually after about 3 weeks vs untreated controls
# Experimental: as §4
# [21] = Table A10a, 1280 g/ha, visual grading after ca. 3 weeks vs untreated controls
Compound,pre-emergence activity at 320g/ha against ECHCG in % (ECHCG [1]) [%],pre-emergence activity at 1280g/ha against ECHCG in % (ECHCG [1]) [%],pre-emergence activity at 1280g/ha against LOLRI in % (LOLRI [2]) [%],pre-emergence activity at 320g/ha against MATIN in % (MATIN [3]) [%],pre-emergence activity at 1280g/ha against MATIN in % (MATIN [3]) [%],pre-emergence activity at 1280g/ha and against SETVI in % (SETVI [4]) [%],pre-emergence activity at 320g/ha against STEME in % (STEME [5]) [%],pre-emergence activity at 1280g/ha against STEME in % (STEME [5]) [%],pre-emergence activity at 320g/ha and against POAAN in % (POAAN [6]) [%],pre-emergence activity at 1280g/ha and against POAAN in % (POAAN [6]) [%],pre-emergence activity at 1280g/ha against AMARE in % (AMARE [7]) [%],pre-emergence activity at 1280g/ha against KCHSC in % (KCHSC [8]; [21]) [%],pre-emergence activity at 1280g/ha against DIGSA in % (DIGSA [9]) [%],post-emergence activity at 1280g/ha against ECHCG in % (ECHCG [10]) [%],post-emergence activity at 1280g/ha against SETVI in % (SETVI [12]) [%],post-emergence activity at 1280g/ha against STEME in % (STEME [13]) [%],post-emergence activity at 1280g/ha against AMARE in % (AMARE [15]) [%],post-emergence activity at 1280g/ha against KCHSC in % (KCHSC [17]) [%],post-emergence activity at 1280g/ha against VERPE in % (VERPE) [%],other results
"Cc1ccsc1C1=NOC2(CCCN(Cc3ccccc3F)C2=O)C1 (racemic) [Compound I-1, 7-(2-Fluorobenzyl)-3-(3-methyl-2-thienyl)-1-oxa-2,7-diazaspiro[4.5]dec-2-en-6-one]",100,100,90,90,100,100,90,90,100,100,90,90,100,90,90,90,90,90,90,"pre-emergence activity at 320g/ha and against SETVI in % (SETVI [4]; 320 g/ha): 100%; pre-emergence activity at 80g/ha against STEME in % (STEME [5]; 80 g/ha): 90%; pre-emergence activity at 320g/ha against AMARE in % (AMARE [7]; 320 g/ha): 90%; pre-emergence activity at 1280g/ha against KCHSC in % (KCHSC [8]; Table A10b, title 1280g/ha, application rate column prints 320 g/ha, visual grading after ca. 3 weeks vs untreated controls): 90%; post-emergence activity at 320g/ha against ABUTH in % (ABUTH; 320 g/ha): 90%; post-emergence activity at 1280g/ha against ABUTH in % (ABUTH; 1280 g/ha): 90%; post-emergence activity at 1280g/ha against MATIN in % (MATIN [11]): 90%; post-emergence activity at 320g/ha against SETVI in % (SETVI [12]; 320 g/ha): 90%; post-emergence activity at 320g/ha against STEME in % (STEME [13]; 320 g/ha): 90%; post-emergence activity at 80g/ha against POAAN in % (POAAN [14]; 80 g/ha): 90%; post-emergence activity at 320g/ha against POAAN in % (POAAN [14]; 320 g/ha): 90%; post-emergence activity at 1280g/ha against POAAN in % (POAAN [14]; 1280 g/ha): 90%; post-emergence activity at 1280g/ha against ALOMY in % (ALOMY [16]): 90%; post-emergence activity at 320g/ha against KCHSC in % (KCHSC [17]; 320 g/ha): 90%; post-emergence activity at 320g/ha against VERPE in % (VERPE; 320 g/ha): 90%"
N#Cc1ncccc1C1=NOC2(CCN(Cc3ccccc3F)C2=O)C1 (racemic) [Compound I-35],90,100,90,90,90,100,90,90,100,100,90,90,100,90,90,90,90,90,90,"pre-emergence activity at 320g/ha against LOLRI in % (LOLRI [2]; 320 g/ha): 90%; pre-emergence activity at 1280g/ha against ALOMY in % (ALOMY [18]): 90%; pre-emergence activity at 1280g/ha against KCHSC in % (KCHSC [8]; 1280 g/ha, 504 h): 90%; pre-emergence activity at 320g/ha against DIGSA in % (DIGSA [9]; 320 g/ha): 100%; post-emergence activity at 1280g/ha against LOLRI in % (LOLRI [19]): 90%; post-emergence activity at 320g/ha against AMARE in % (AMARE [15]; 320 g/ha): 90%; post-emergence activity at 1280g/ha against DIGSA in % (DIGSA [20]): 90%"
